Results taken from patent US20170112861A1, “DRUG DELIVERY ENHANCER COMPRISING SUBSTANCE FOR ACTIVATING LYSOPHOSPHOLIPID RECEPTORS” (Osaka University, priority 2014, published 2017).

Assays:
[1] = system: tumor blood vessels of LLC cell tumors; experiment: Structural changes in tumor blood vessels after S1P administration (anti-CD31 immunostaining); format: in vivo; conditions: LLC tumor-bearing mice, S1P 0.3 mg/kg tail vein once daily for three days, 24 hours after final administration
Method: LLC cells were subcutaneously inoculated into C57BL/6 […] mice aged 8 weeks (females, SLC, Inc.) in the same manner as in Example 1. S1P (Avanti Polar Lipids, Inc.) was dissolved in PBS at 10 mM and the solution was stored at -30° C. as a stock solution. Before use, the stock solution was thawed and homogenized with an ultrasonic cleaner (SND Co., Ltd.) for 1 minute. The solution was diluted in PBS before administration so that the concentration of S1P was 0.3 mg/kg in 100 μL PBS. The prepared solution was used for S1P administration. Mice on day 9 post-inoculation of LLC cells (individuals with a tumor volume of 60 to 80 mm^3) were subjected to the experiment. The mice were divided into two groups: control group and S1P group (n=3). From the day of grouping, S1P was administered to the tail vein of the S1P group mice at a dose of 0.3 mg/kg in 100 μL PBS once daily for consecutive three days. To the control group mice, PBS (100 μL) was administered instead of S1P. At 24 hours after the final administration, the tumors were harvested from the mice, and the specimens of tumor blood vessels were prepared in the same manner as in Example 1. The specimens were observed and photographed under a confocal laser microscope (Leica).

[2] = system: Mouse pancreatic vascular endothelial cell line (MS-1); experiment: In vitro barrier function of endothelial cell-cell junctions (ECIS-Zθ, resistance between cells Rb); format: cell-based; conditions: MS-1 cells, 10 μM
Method: In vitro barrier function of the cell-cell junctions of vascular endothelial cells in the presence of LPA or VPC 31144 (S) was analyzed using a real-time cell ECIS-Zθ analyzer (Applied Biophysics).
LPA and VPC 31144 (S) were each dissolved in 50% ethanol as a 10 mM LPA stock solution and stored at −30° C. Before use, the LPA stock solution was thawed and homogenized with an ultrasonic cleaner (SND Co., Ltd.) for 1 minute. The solution was diluted in a serum-free culture medium supplemented with 0.1% BSA to a concentration of 10 μM.
Mouse pancreatic vascular endothelial cell line (MS-1) was used. The cells were suspended in DMEM (Sigma) containing 5% FBS. The cell suspension was seeded on a well plate with electrodes (8W10E+, 8 wells) specially designed for the analyzer at a density of 1×10^5 cells in 400 μL per well, and the cells were cultured overnight in an incubator to confluence. The medium was replaced by serum-free culture medium containing 0.1% BSA, and the cells were incubated for 4 hours. The medium was replaced by culture medium (serum-free culture medium containing 0.1% BSA) containing 10 μM LPA or VPC 31144 (S). The medium of the control cultures was replaced by serum-free culture medium containing 0.1% BSA. After replacement of the medium, resistance between cells (Rb) was measured in real time to evaluate the barrier function.

| SMILES | formation of a network of tumor blood vessels [1] | speed of barrier function increase ([2]; immediately after addition, compared with LPA) | electric resistance (Rb), barrier function in endothelial cells ([2]; serum-free medium with 0.1% BSA, vs control) |
| --- | --- | --- | --- |
| CCCCCCCCCCCCC/C=C/[C@@H](O)[C@@H](N)COP(=O)(O)O [S1P, sphingosine-1-phosphate] | the formation of a network of tumor blood vessels was induced |  |  |
| CCCCCCCC/C=C\CCCCCCCC(=O)N[C@@H](CO)COP(=O)(O)O [VPC 31144, N-{(1S)-2-hydroxy-1-[(phosphonooxy)methyl]ethyl}(9Z) octadec-9-enamide] |  | more rapidly increased the barrier function immediately after the administration, as compared with addition of LPA | also increased the barrier function in endothelial cells |
